# Assay results as given in US20050239758A1, “Hormone treatment of multiple sclerosis” (priority 2004, published 2005).
# B1: myelin basic protein (protein, UniProt P02686 1-304, looked up)
# Myelin basic protein: MGNHAGKRELNAEKASTNSETNRGESEKKRNLGELSRTTSEDNEVFGEADANQNNGTSSQDTAVTDSKRTADPKNAWQDAHPADPGSRPHLIRLFSRDAPGREDNTFKDRPSESDELQTIQEDSAATSESLDVMASQKRPSQRHGSKYLATASTMDHARHGFLPRHRDTGILDSIGRFFGGDRGAPKRGSGKDSHHPARTAHYGSLPQKSHGRTQDENPVVHFFKNIVTPRTPPPSQGKGRGLSLSRFSWGAEGQRPGFGYGGRASDYKSAHKGFKGVDAQGTLSKIFKLGGRDSRSGSPMARR
# Legend:
# [1] = tested on: multiple sclerosis symptoms; test: Clinical case: daily sublingual dilute progesterone in a patient with multiple sclerosis; format: in vivo, human
# Method: An adult human presented with a diagnosis of multiple sclerosis (MS) from a group of neurologists specializing in MS. They had confirmed the diagnosis with magnetic resonance imaging (MRI) scans showing demylination of major nerves. They were evaluated for hormone allergy therapy by assessing their anti-hormone antibodies and found to have elevated levels of anti-progesterone IgG and IgM antibodies. They then received progesterone 1:10 sublingual treatment, daily. Within a month of their initial diagnosis, they rated their symptoms at a 10 on a scale of 1-10, with 10 representing the worst symptoms experienced. A year after diagnosis, but before beginning low dosage hormone therapy, they rated their symptoms at a 5. They then began receiving daily sublingual progesterone (1:10) treatment. They reported an immediate reduction of their symptoms to a 3 or 4. After over a year of therapy, they reported their symptoms to be generally about a 2 with days where they have been a 0 or 1. On one occasion, the subject ran out of drops and, therefore, temporarily discontinued therapy.
# serum anti-estrogen IgG = test: Competition ELISA: absorption of serum anti-estrogen IgG with specific and non-specific antigens; format: binding, human; settings: for Percent inhibition of serum anti-estrogen IgG after absorption: absorption with 250 μg/mL antigen, NS = non-significant; for Inhibition of anti-estrogen binding to estrogen (IgG): antigen in liquid phase, range over the samples; for Absorption of serum IgG antibodies by antigen added to the liquid phase: competition ELISA, result in words
# Method: (§1) Enzyme-linked immunosorbent assay (ELISA) was used for testing antibodies against estrogen and progesterone in the sera of patients with premenstrual asthma and with control subjects. Different rows of microtiter plates (Costar) were coated either with 100 μl of BSA concentration of 10 μg/mL or 100 μl of estrogen-BSA or progesterone-BSA optimal concentration of 10 μg/mL in 0.1 m carbonate-bicarbonate buffer (pH 9.5). Plates were incubated overnight at 4° C. and then washed three times with […] of Tris-buffered saline (TBS) containing 0.05% Tween 20, pH 7.4. […] Plates were washed with PBS-Tween 20 and then 100 μl of control or patient's serum was added to duplicate wells coated either with BSA alone or with estrogen or progesterone bound to BSA. […] Plates were incubated for 2 h (for IgG and IgM) and overnight (for IgE), and then washed four times with PBS-Tween 20. Alkaline-phosphatase-conjugated goat anti-human IgG, IgM or IgE F(ab′)2 fragment at optimal dilution of 1:700 (IgG); 1:500 (IgM) and 1:250 (IgE) was added to corresponding wells. The plates were then incubated for an additional 2 h at room temperature. After washing five times with TBS-Tween buffer, the enzyme reaction was started by adding 100 μl of para-nitrophenylphosphate in 0.1 mL of diethanolamine buffer (1 mg/ml) containing 1 mM MgCl2 and sodium azide, pH 9.8. The reaction was stopped 45 minutes later with 50 μl of 1 N NaOH. The optical density was read at 405 nm (OD405) with a microtiter reader. […] However, this non-specific O.D. was subtracted from wells coated with estrogen or progesterone bound to BSA.
# (§2) For this, microtiter plates were coated with hormones and blocked by the addition of 2% BSA in PBST. 100 μl of serum diluent buffer was added to all wells. […] After a 60-minute incubation, 100 μl serum anti-estrogen or anti-progesterone was added to all wells. […] Results were calculated as a percentage of inhibition in antigen-antibody reaction.
# (§3) To examine whether antibodies to estrogen or progesterone are specific or cross-reactive, competition ELISA was performed by adding specific and non-specific antigens in liquid phase and examined prevention of serum antibody binding to the antigen in solid phase. […] This cross-reaction between estrogen and progesterone antibodies may be due to structural similarities between these two hormones.
# serum anti-estrogen IgE = test: Competition ELISA: absorption of serum anti-estrogen IgE with specific and non-specific antigens; format: binding, human; settings: for Percent inhibition of serum anti-estrogen IgE after absorption: absorption with 250 μg/mL antigen, NS = non-significant; for Inhibition of IgE anti-estrogen binding: antigen in liquid phase, range over the samples; for Absorption of serum IgE antibodies by antigen added to the liquid phase: competition ELISA, result in words
# Method: as §1, §2, §3
Molecule,"Symptoms on temporary discontinuation of therapy ([1]; ran out of drops, over a period of several days until therapy restarted)","Self-rated symptoms, generally, after over a year of therapy ([1]; scale of 1-10, 10 = worst, progesterone 1:10 sublingual daily, rated 5 before therapy)",Percent inhibition of serum anti-estrogen IgG after absorption (serum anti-estrogen IgG; Sample 1),Percent inhibition of serum anti-estrogen IgG after absorption (serum anti-estrogen IgG; Sample 2),Percent inhibition of serum anti-estrogen IgG after absorption (serum anti-estrogen IgG; Sample 3),Inhibition of anti-estrogen binding to estrogen (IgG) (serum anti-estrogen IgG),Absorption of serum IgG antibodies by antigen added to the liquid phase (serum anti-estrogen IgG),Percent inhibition of serum anti-estrogen IgE after absorption (serum anti-estrogen IgE; Sample 1),Percent inhibition of serum anti-estrogen IgE after absorption (serum anti-estrogen IgE; Sample 2),Percent inhibition of serum anti-estrogen IgE after absorption (serum anti-estrogen IgE; Sample 3),Inhibition of IgE anti-estrogen binding (serum anti-estrogen IgE),Absorption of serum IgE antibodies by antigen added to the liquid phase (serum anti-estrogen IgE)
CC(=O)[C@H]1CC[C@H]2[C@@H]3CCC4=CC(=O)CC[C@]4(C)[C@H]3CC[C@]12C [progesterone],steadily worsened,~2,,,,,,,,,,
Estrogen-BSA,,,(67%),(59%),(52%),52-67%,significantly absorbed,(55%),(54%),(62%),54-62%,significantly absorbed
Progesterone-BSA [Pn],,,(52%),(45%),(41%),41-52%,significantly absorbed,(37%),(41&) %,(43%),37-43%,significantly absorbed
bovine serum albumin [BSA],,,,,,,did not absorb,,,,,did not absorb
B1,,,,,,,did not absorb,,,,,did not absorb
